# From PubChem BioAssay AID330 (DTP/NCI, 2004)
# Values joined by “and” are separate entries in the source; they are usually repeats but may differ in a detail not shown here. Identical values can stand only once. Toxic doses and inconclusive results are not listed.
# System: P388 leukemia ip, CD2F1 mice, survival T/C
# Experiment: NCI In Vivo Anticancer Drug Screen. Data for tumor model P388 Leukemia (intraperitoneal) in CD2F1 (CDF1) mice
# Details: endpoint: median survival time, higher = longer survival
# Method in brief: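 Mice carrying the transplanted tumor received test compound or vehicle. Survival was recorded in each group, and the value is the treated-group measurement divided by that of the vehicle-treated control group.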
# [1] = dose: 12.5 mg/kg/injection, schedule: Q01DX009 (ip), vehicle: saline
# [2] = dose: 50.0 mg/kg/injection, schedule: Q01DX009 (ip), vehicle: Klucel (hydroxypropylcellulose) (HPC)
# [3] = dose: 12.5 mg/kg/injection, schedule: Q01DX009 (ip), vehicle: water
# [4] = dose: 25.0 mg/kg/injection, schedule: Q01DX009 (ip), vehicle: water
# [5] = dose: 25.0 mg/kg/injection, schedule: Q01DX009 (ip), vehicle: other
# [6] = dose: 50.0 mg/kg/injection, schedule: Q01DX009 (ip), vehicle: saline with Tween-80
# [7] = dose: 100.0 mg/kg/injection, schedule: Q01DX009 (ip), vehicle: saline with Tween-80
# [8] = dose: 200.0 mg/kg/injection, schedule: Q01DX009 (ip), vehicle: saline with Tween-80
# [9] = dose: 50.0 mg/kg/injection, schedule: Q04DX003 (ip), vehicle: saline with Tween-80
# [10] = dose: 50.0 mg/kg/injection, schedule: Q01DX005 (ip), vehicle: saline with Tween-80
# [11] = dose: 60.0 mg/kg/injection, schedule: Q01DX005 (ip), vehicle: saline with Tween-80
# [12] = dose: 120.0 mg/kg/injection, schedule: Q01DX005 (ip), vehicle: saline with Tween-80
# [13] = dose: 240.0 mg/kg/injection, schedule: Q01DX005 (ip), vehicle: saline with Tween-80
smiles,measurement,setting,value
O=C(CCS(=O)(=O)CCC(=O)c1ccc2ccccc2c1)c1ccc2ccccc2c1,T/C,"dose: 25.0 mg/kg/injection, schedule: Q04DX003 (ip), vehicle: saline",102 % of control
same,T/C,"dose: 50.0 mg/kg/injection, schedule: Q04DX003 (ip), vehicle: saline",99 % of control
same,T/C,"dose: 100.0 mg/kg/injection, schedule: Q04DX003 (ip), vehicle: saline",92 % of control and 98 % of control
same,T/C,"dose: 400.0 mg/kg/injection, schedule: Q04DX003 (ip), vehicle: saline",88 % of control
C[N+](C)(C)CCC(=O)c1ccc(O)cc1,T/C,"dose: 3.13 mg/kg/injection, schedule: Q01DX009 (ip), vehicle: saline",97 % of control
same,T/C,"dose: 6.25 mg/kg/injection, schedule: Q01DX009 (ip), vehicle: saline",100 % of control
same,T/C,[1],118 % of control
CC(C)(C)N=C(CCN1CCN(CCC(=NC(C)(C)C)Nc2ccc(Cl)cc2)CC1)Nc1ccc(Cl)cc1,T/C,[2],87 % of control
same,T/C,"dose: 100.0 mg/kg/injection, schedule: Q01DX009 (ip), vehicle: Klucel (hydroxypropylcellulose) (HPC)",93 % of control
same,T/C,"dose: 200.0 mg/kg/injection, schedule: Q01DX009 (ip), vehicle: Klucel (hydroxypropylcellulose) (HPC)",96 % of control
CCOC(=O)/C=C/C(=O)NN,T/C,[3],89 % of control
same,T/C,[4],100 % of control
same,T/C,"dose: 50.0 mg/kg/injection, schedule: Q01DX009 (ip), vehicle: water",99 % of control and 102 % of control and 93 % of control
same,T/C,"dose: 100.0 mg/kg/injection, schedule: Q01DX009 (ip), vehicle: water",107 % of control and 109 % of control and 97 % of control
same,T/C,"dose: 200.0 mg/kg/injection, schedule: Q01DX009 (ip), vehicle: water",104 % of control and 109 % of control
O=C1OCCC1C(O)c1ccccc1 (stereo not given),T/C,[5],110 % of control
same,T/C,"dose: 50.0 mg/kg/injection, schedule: Q01DX009 (ip), vehicle: other",102 % of control
same,T/C,"dose: 100.0 mg/kg/injection, schedule: Q01DX009 (ip), vehicle: other",110 % of control
same,T/C,"dose: 200.0 mg/kg/injection, schedule: Q01DX009 (ip), vehicle: other",107 % of control
same,T/C,"dose: 400.0 mg/kg/injection, schedule: Q01DX009 (ip), vehicle: other",111 % of control
Cc1ccc(S(=O)(=O)Nc2ccccc2N(CCN(CCN(c2ccccc2NS(=O)(=O)c2ccc(C)cc2)S(=O)(=O)c2ccc(C)cc2)S(=O)(=O)c2ccc(C)cc2)S(=O)(=O)c2ccc(C)cc2)cc1,T/C,[6],90 % of control
same,T/C,[7],100 % of control
same,T/C,[8],90 % of control
CCN(CC)CCNC(=O)c1nn(-c2ccc(C)cc2)c2c1N(C)S(=O)(=O)c1ccccc1-2,T/C,"dose: 100.0 mg/kg/injection, schedule: Q01DX001 (ip), vehicle: saline with Tween-80",100 % of control
same,T/C,"dose: 200.0 mg/kg/injection, schedule: Q01DX001 (ip), vehicle: saline with Tween-80",97 % of control
same,T/C,"dose: 400.0 mg/kg/injection, schedule: Q01DX001 (ip), vehicle: saline with Tween-80",97 % of control
Cc1nc2c([N+](=O)[O-])c(N(C)C)c([N+](=O)[O-])cc2[nH]1,T/C,"dose: 25.0 mg/kg/injection, schedule: Q04DX003 (ip), vehicle: saline with Tween-80",96 % of control
same,T/C,[9],87 % of control
COc1cc2cc(-c3ccc4c(c3)OCO4)[n+](C)cc2cc1OC,T/C,"dose: 6.25 mg/kg/injection, schedule: Q01DX001 (ip), vehicle: Klucel (hydroxypropylcellulose) (HPC)",100 % of control
same,T/C,"dose: 12.5 mg/kg/injection, schedule: Q01DX001 (ip), vehicle: Klucel (hydroxypropylcellulose) (HPC)",107 % of control
same,T/C,"dose: 25.0 mg/kg/injection, schedule: Q01DX001 (ip), vehicle: Klucel (hydroxypropylcellulose) (HPC)",110 % of control
same,T/C,"dose: 50.0 mg/kg/injection, schedule: Q01DX001 (ip), vehicle: Klucel (hydroxypropylcellulose) (HPC)",96 % of control
CCCCCN(CCCCC)CC(=O)c1ccc2cc(Br)c3ccccc3c2c1,T/C,[10],104 % of control
same,T/C,"dose: 100.0 mg/kg/injection, schedule: Q01DX005 (ip), vehicle: saline with Tween-80",101 % of control
same,T/C,"dose: 200.0 mg/kg/injection, schedule: Q01DX005 (ip), vehicle: saline with Tween-80",108 % of control
CS(=O)(=O)Nc1cccc2c1-c1ccccc1C2=O,T/C,"dose: 50.0 mg/kg/injection, schedule: Q01DX005 (ip), vehicle: Klucel (hydroxypropylcellulose) (HPC)",96 % of control
same,T/C,"dose: 100.0 mg/kg/injection, schedule: Q01DX005 (ip), vehicle: Klucel (hydroxypropylcellulose) (HPC)",101 % of control
same,T/C,"dose: 200.0 mg/kg/injection, schedule: Q01DX005 (ip), vehicle: Klucel (hydroxypropylcellulose) (HPC)",88 % of control
CSc1nc(N)nc2c1ncn2C1CC(O)C(CO)O1 (stereo not given),T/C,"dose: 50.0 mg/kg/injection, schedule: Q04DX003 (ip), vehicle: Klucel (hydroxypropylcellulose) (HPC)",94 % of control
same,T/C,"dose: 100.0 mg/kg/injection, schedule: Q04DX003 (ip), vehicle: Klucel (hydroxypropylcellulose) (HPC)",100 % of control
same,T/C,"dose: 200.0 mg/kg/injection, schedule: Q04DX003 (ip), vehicle: Klucel (hydroxypropylcellulose) (HPC)",107 % of control
same,T/C,"dose: 400.0 mg/kg/injection, schedule: Q04DX003 (ip), vehicle: Klucel (hydroxypropylcellulose) (HPC)",106 % of control
C1=CC2(C=CCC1)OCCO2,T/C,[10],121 % of control
O=C(O)c1ccc(C(=O)c2ccc([N+](=O)[O-])cc2)cc1,T/C,[11],103 % of control
same,T/C,[12],104 % of control
same,T/C,[13],103 % of control
Cc1cnc(/C=N\NC(N)=S)c2cccc(N)c12,T/C,"dose: 1.57 mg/kg/injection, schedule: Q01DX009 (ip), vehicle: saline with Tween-80",120 % of control
same,T/C,"dose: 3.12 mg/kg/injection, schedule: Q01DX009 (ip), vehicle: saline with Tween-80",103 % of control
same,T/C,"dose: 4.32 mg/kg/injection, schedule: Q01DX005 (ip), vehicle: clinical formulation",121 % of control
same,T/C,"dose: 6.25 mg/kg/injection, schedule: Q01DX009 (ip), vehicle: water",170 % of control
same,T/C,"dose: 12.0 mg/kg/injection, schedule: Q01DX005 (ip), vehicle: clinical formulation",152 % of control
same,T/C,"dose: 12.5 mg/kg/injection, schedule: Q01DX009 (ip), vehicle: Klucel (hydroxypropylcellulose) (HPC)",162 % of control and 163 % of control
same,T/C,"dose: 12.5 mg/kg/injection, schedule: Q01DX009 (ip), vehicle: other",188 % of control
same,T/C,"dose: 12.5 mg/kg/injection, schedule: Q01DX009 (ip), vehicle: saline with Tween-80",168 % of control
same,T/C,[1],150 % of control
same,T/C,[3],189 % of control
same,T/C,"dose: 20.0 mg/kg/injection, schedule: Q01DX005 (ip), vehicle: clinical formulation",155 % of control
same,T/C,"dose: 25.0 mg/kg/injection, schedule: Q01DX009 (ip), vehicle: Klucel (hydroxypropylcellulose) (HPC)",179 % of control and 193 % of control
same,T/C,[5],97 % of control
same,T/C,"dose: 25.0 mg/kg/injection, schedule: Q01DX009 (ip), vehicle: saline with Tween-80",184 % of control
same,T/C,"dose: 25.0 mg/kg/injection, schedule: Q01DX009 (ip), vehicle: saline",172 % of control
same,T/C,[4],218 % of control
same,T/C,[2],109 % of control
CCOC(=O)c1ccc(NC(=O)Nc2nc3c(Cl)cccc3s2)cc1,T/C,[6],104 % of control
same,T/C,[7],94 % of control
same,T/C,[8],87 % of control
C=CC12CCCCC1CCC(=O)C2 (stereo not given),T/C,[2],111 % of control
O=C(Nc1cc(-c2ccccc2)[nH]n1)c1ccc(Cl)cc1,T/C,[11],102 % of control
same,T/C,[12],93 % of control
same,T/C,[13],93 % of control
NC(=S)N/N=C1/C(=O)N(c2ccc(S(N)(=O)=O)cc2)C(=O)C1C(=O)Nc1ccc(S(N)(=O)=O)cc1 (stereo not given),T/C,"dose: 25.0 mg/kg/injection, schedule: Q04DX002 (ip), vehicle: saline with Tween-80",104 % of control
same,T/C,"dose: 50.0 mg/kg/injection, schedule: Q04DX002 (ip), vehicle: saline with Tween-80",100 % of control
same,T/C,"dose: 100.0 mg/kg/injection, schedule: Q04DX002 (ip), vehicle: saline with Tween-80",99 % of control and 100 % of control
C=Cc1c(C)c(OC(C)=O)cc2c1-c1ccc(OC(C)=O)c(C)c1CC2,T/C,"dose: 2.25 mg/kg/injection, schedule: Q01DX009 (ip), vehicle: Klucel (hydroxypropylcellulose) (HPC)",103 % of control
same,T/C,"dose: 4.5 mg/kg/injection, schedule: Q01DX009 (ip), vehicle: Klucel (hydroxypropylcellulose) (HPC)",100 % of control
same,T/C,"dose: 9.0 mg/kg/injection, schedule: Q01DX009 (ip), vehicle: Klucel (hydroxypropylcellulose) (HPC)",94 % of control
same,T/C,"dose: 18.0 mg/kg/injection, schedule: Q01DX009 (ip), vehicle: Klucel (hydroxypropylcellulose) (HPC)",100 % of control
CCO/C(=C\C(=O)c1ccccc1)c1ccccc1,T/C,[9],100 % of control
same,T/C,"dose: 100.0 mg/kg/injection, schedule: Q04DX003 (ip), vehicle: saline with Tween-80",100 % of control
same,T/C,"dose: 200.0 mg/kg/injection, schedule: Q04DX003 (ip), vehicle: saline with Tween-80",100 % of control
